In patent US9290457B2, “Substituted dihydropyrimidinones and their use as inhibitors of neutrophil elastase activity” (Boehringer Ingelheim International GmbH, priority 2014, dated 2016):

These compounds were tested against neutrophil elastase (Homo sapiens (Human), UniProt P08246) (assay: Human Neutrophil Elastase Assay). Conditions: substrate MeOSuc-Ala-Ala-Pro-Val-AMC.
Type: biochemical

neutrophil elastase, sequence (P08246 30-247): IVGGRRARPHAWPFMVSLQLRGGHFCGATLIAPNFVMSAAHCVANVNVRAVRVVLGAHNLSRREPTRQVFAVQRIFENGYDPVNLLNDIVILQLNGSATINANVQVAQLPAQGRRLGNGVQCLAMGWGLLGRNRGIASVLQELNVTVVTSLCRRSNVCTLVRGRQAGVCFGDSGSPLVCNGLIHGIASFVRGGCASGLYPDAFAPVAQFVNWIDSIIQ

IC50 [nM] | SMILES
< 1 | CC(=O)C1=C(C)N(c2cccc(C(F)(F)F)c2)C(=O)N(C)C1c1ccc(C#N)cc1-c1ncc(C)o1 (centres unmarked) [Example 7, 4-[5-Acetyl-3,6-dimethyl-2-oxo-1-(3-trifluoromethyl-phenyl)-1,2,3,4-tetrahydro-pyrimidin-4-yl]-3-(5-methyl-oxazol-2-yl)-benzonitrile]
< 1 | CC(=O)C1=C(C)N(c2cccc(C(F)(F)F)c2)C(=O)N(C)C1c1ccc(C#N)cc1-c1nc(C)no1 (centres unmarked) [Example 9, 4-[5-Acetyl-3,6-dimethyl-2-oxo-1-(3-trifluoromethyl-phenyl)-1,2,3,4-tetrahydro-pyrimidin-4-yl]-3-(5-methyl-[1,3,4]oxadiazol-2-yl)-]
< 1 | CC(=O)C1=C(C)N(c2cccc(C(F)(F)F)c2)C(=O)N(C)C1c1ccc(C#N)cc1C1=CCNCC1 (centres unmarked) [Example 10, 4-[5-Acetyl-3,6-dimethyl-2-oxo-1-(3-trifluoromethyl-phenyl)-1,2,3,4-tetrahydro-pyrimidin-4-yl]-3-(1,2,3,6-tetrahydro-pyridin-4-yl)-benzonitrile]
4.6 | CC(=O)C1=C(C)N(c2cccc(C(F)(F)F)c2)C(=O)NC1c1ccc(C#N)cc1-c1ccoc1 (centres unmarked) [Example 11, 4-[5-Acetyl-6-methyl-2-oxo-1-(3-trifluoromethyl-phenyl)-1,2,3,4-tetrahydro-pyrimidin-4-yl]-3-furan-3-yl-benzonitrile]
< 1 | CC(=O)C1=C(C)N(c2cccc(C(F)(F)F)c2)C(=O)N(C)[C@@H]1c1ccc(C#N)cc1C(N)=O [Example 13, 2-[(R)-5-Acetyl-3,6-dimethyl-2-oxo-1-(3-trifluoromethyl-phenyl)-1,2,3,4-tetrahydro-pyrimidin-4-yl]-5-cyano-benzamide]
< 1 | CC(=O)C1=C(C)N(c2cccc(C(F)(F)F)c2)C(=O)N(C)[C@@H]1c1ccc(C#N)cc1C(=O)NC1CC1 [Example 13.2]
< 1 | CC(=O)C1=C(C)N(c2cccc(C(F)(F)F)c2)C(=O)N(C)[C@@H]1c1ccc(C#N)cc1C(=O)NCC#N [Example 13.3]
3.7 | CCOC(=O)C1=C(C)N(c2cccc(C(F)(F)F)c2)C(=O)N(C)C1c1ccc(C#N)cc1-c1ccco1 (centres unmarked) [Example 14, 4-(4-Cyano-2-furan-2-yl-phenyl)-3,6-dimethyl-2-oxo-1-(3-trifluoromethyl-phenyl)-1,2,3,4-tetrahydro-pyrimidine-5-carboxylic acid ethyl ester]
3.2 | CCOC(=O)C1=C(C)N(c2cccc(C(F)(F)F)c2)C(=O)N(C)C1c1ccc(C#N)cc1-c1ccoc1 (centres unmarked) [Example 14.1]
1.9 | CCOC(=O)C1=C(C)N(c2cccc(C(F)(F)F)c2)C(=O)N(C)C1c1ccc(C#N)cc1-c1cn[nH]c1 (centres unmarked) [Example 14.2]
< 1 | CCOC(=O)C1=C(C)N(c2cccc(C(F)(F)F)c2)C(=O)N(C)C1c1ccc(C#N)cc1-c1cnoc1 (centres unmarked) [Example 14.3]
1.9 | CCOC(=O)C1=C(C)N(c2cccc(C(F)(F)F)c2)C(=O)N(C)C1c1ccc(C#N)cc1C1=COCC1 (centres unmarked) [Example 14.4]
< 1 | CCOC(=O)C1=C(C)N(c2cccc(C(F)(F)F)c2)C(=O)N(C)C1c1ccc(C#N)cc1-c1cnn(C)c1 (centres unmarked) [Example 14.5]
3.1 | CCOC(=O)C1=C(C)N(c2cccc(C(F)(F)F)c2)C(=O)N(C)C1c1ccc(C#N)cc1-c1ccnn1C (centres unmarked) [Example 14.6]
2.4 | CCOC(=O)C1=C(C)N(c2cccc(C(F)(F)F)c2)C(=O)N(C)C1c1ccc(C#N)cc1-c1ccn(C)n1 (centres unmarked) [Example 14.7]
< 1 | CCOC(=O)C1=C(C)N(c2cccc(C(F)(F)F)c2)C(=O)N(C)C1c1ccc(C#N)cc1-c1ccn(C)c(=O)c1 (centres unmarked) [Example 14.9]
3 | CCOC(=O)C1=C(C)N(c2cccc(C(F)(F)F)c2)C(=O)N(C)C1c1ccc(C#N)cc1C1=CCNCC1 (centres unmarked) [Example 15, 4-[4-Cyano-2-(1,2,3,6-tetrahydro-pyridin-4-yl)-phenyl]-3,6-dimethyl-2-oxo-1-(3-trifluoromethyl-phenyl)-1,2,3,4-tetrahydro-pyrimidine-5-carboxylic acid ethyl ester]
